Measurements: patent US8999937B2, “Glucocorticoid induced leucine zipper mimetics as therapeutic agents in multiple sclerosis” (Indiana University Research and Technology Corporation, priority 2011, dated 2015)
Entries after “also recorded” stand apart in the source; their conditions may differ.

What was measured:
R-EAE in SJL/J mice = test: Relapsing remitting EAE (R-EAE) in SJL/J mice, clinical score; format: in vivo, mouse
Procedure: Relapsing remitting EAE is induced in 8-10-week old female SJL/J mice. The mice were immunized with 100 μg of PLP139-151 in PBS emulsified 1:1 in complete Freund's adjuvant supplemented with 200 μg of Mycobacterium tuberculosis H37RA (Difco Laboratories, Detroit, Mich.) distributed over four sites on the lateral hind flanks subcutaneously. Mice were injected with 100 ng of pertussis toxin (List Biological Laboratories, Campbell, Calif.) intraperitonealy on the day of immunization and 2 days later (Srinivasan et al., (2002) J Immunol, 169(4):2180-8).
As opposed to the B10.PL mice which often develop monophasic EAE, PLP139-151 immunized SJL/J mice develop relapsing remitting form of EAE (R-EAE) (Dudhgaonkar et al. (2009) J Immunol, 183(11):7505-13). Groups of SJL/J mice were induced EAE as described above. Animals were observed daily for clinical signs and scored as follows: 0, no clinical signs; 1, limp tail or waddling gait with tail tonicity; 2, waddling gait with limp tail (ataxia); 2.5, ataxia with partial paralysis of one limb; 3, partial hind-limb paralysis; 3.5, full paralysis of one limb with partial paralysis of the second limb; 4, full paralysis of two limbs; 4.5 moribund; and 5, death (1, 8). […] A group of mice received the GILZ peptide:Pep-1 complex on day 12 post-immunization. Groups of mice treated with PBS (vehicle) or Pep-1 alone were included as control.
A group of mice received the GILZ-P•Pep-1 complex 12 days post-immunization. rh-GILZ was used to evaluate the effect in R-EAE.

[1] = system: CD4+ LNC from PLP primed SJL/J mice; test: In vitro cytokine secretion (ELISA) by PLP139-151 restimulated CD4+ cells from primed SJL/J mice; format: cell-based, mouse; conditions: for IFN-γ secretion / IL-10 secretion / IL-12 secretion / IL-17 secretion: CD4+ LNC, PLP restimulated, 48 h; for IFN-γ secretion / IL-10 secretion / IL-12 secretion: vs untreated/control peptide; for IL-17 secretion: vs untreated/control-P; for cytokine secretion (INF-γ and IL-12p40) by in-vivo primed T cells: CD4+ splenocytes, PLP 40 μg/ml, 24 hrs, FIG. 5
Procedure: CD4+ splenocytes isolated 10 days post-immunization from SJL mice induced EAE were co-cultured with irradiated syngenic APC and restimulated with PLP (40 μg/ml) in the presence of complex of chariot peptide with rGILZ protein/dexamethasone/GILZ-P at indicated concentrations. Supernatants collected after 24 hrs were assessed for INF-γ and IL-12p40 by ELISA. *=p<0.05 when compared to cells +PLP.
Supernatants from separate CD4+LNC cultured similarly collected at 24 hrs and 48 hrs were stored at −20° C. The levels of cytokines, IL-10, IL-12, and interferon gamma (IFN-γ) were determined by ELISA, using OptEIA kits, according to the manufacturer's recommendations (BD PharMingen). Group comparisons were made by one way analysis of variance (ANOVA) followed by Tukey's post-hoc.
(§1) Supernatants collected at 24 and 48 h were assessed for specific cytokines using the OptEIA kits (BD Biosciences). Proliferation assays included parallel cultures for 72 h with a final 18-h pulse with [^3H]thymidine measured by liquid scintillation counting (Microbeta, Turku, Finland).

[2] = system: CD4+ LNC from PLP primed SJL/J mice; test: In vitro proliferation ([3H]-thymidine) of PLP139-151 restimulated CD4+ LNC from primed SJL/J mice; format: cell-based, mouse; conditions: for proliferative response, in words: vs PLP139-151 alone or vs r-GILZ
Procedure: CD4+ lymph node cells (LNC) isolated from the draining lymph nodes harvested from SJL/J mice 10 days after immunization with PLP139-151 were cultured in 96-well plates at […] in complete RPMI and restimulated with the PLP peptide (40 μg/ml) for 72 h, including a final 16-h pulse with [^3H]-thymidine. […] Separate cultures stimulated with ova (40 μg/ml) served as control for antigen specificity. Irradiated splenocytes from syngenic mice were used as antigen presenting cells (APC). Cultures were harvested onto glass fiber mats using a Skatron harvester (Skatron, Sterling, Va.), and the levels of [^3H]-thymidine incorporation were determined by liquid scintillation counting (Microbeta; Wallac, Turku, Finland). Results were confirmed by replicate experiments. Data are expressed as Δcpm (counts/min incorporated in antigen-stimulated culture-counts/min incorporated by control unstimulated culture).
as §1

[3] = system: activated p65 NF-κB subunit; test: NF-κB assay (TransAM): p65 DNA binding in nuclear extracts; format: cell-based, mouse; conditions: CD4+ LNC restimulated with PLP139-151, 24 h
Procedure: Nuclear and cytoplasmic protein fractions of CD4+ T cells obtained using a nuclear extraction kit are assessed for NF-κB activation and p65 nuclear translocation using Trans^AM NF-κB kits (Active Motif, Carlsbad, Calif.). The effect of exogenous GILZ and GILZ mimetics on phosphorylation and proteolytic degradation of IκB proteins is determined by Western blot analysis of nuclear and cytoplasmic protein fractions from CD4+ T cells pretreated with GILZ/chariot peptide complex prior to stimulation.
5 μg of nuclear extracts isolated from PLP139-151 restimulated CD4+ cells from R-EAE mice were incubated in a 96-well plate coated with oligonucleotides containing the NF-κB consensus binding site. The activated NF-κB bound to DNA was detected by anti-p65 antibody followed by a peroxidase-coupled secondary antibody and substrate using the TransAM kit protocol (Active Motif).

[4] = system: CD4+ splenocytes/LNC from R-EAE mice; test: Ex vivo cytokine secretion (ELISA) by CD4+ cells from treated R-EAE mice; format: in vivo, mouse
Procedure: Data represent average±S.D. from two experiments (n=9/group). (C)-(H) show GILZ-peptide treatment suppresses Th1 cytokines in R-EAE. […] C, proliferative responses of CD4+ splenocytes are plotted as Δcpm±S.E. #, p<0.05 as compared with the responses of cells from vehicle-treated mice. Supernatant collected at 48 h from separate CD4+ splenocyte cultures were assessed for (D) IL-12, (E) IFN-γ, (F) IL-17, (G) IL-10, and (H) TGF-β by ELISA. * and # represent p<0.05 as compared with vehicle or control peptide-treated groups, respectively.
Supernatants collected 48 hrs later were assessed for cytokines using Opt EIA kits according to the manufacturer's recommendations (BD PharMingen). Differences between the groups in the mean clinical score and cytokine secretion were determined by a one-way ANOVA with Tukey's posthoc. Results were considered significant at p<0.05.
as §1

[5] = Example 1, entire period of observation
[6] = Example 1, i.p. on day 0 with Pep-1, peptides 500 μg, r-GILZ 2 ng, n=4/group
[7] = Example 2, single i.p. dose on day 0 with Pep-1, peptides 500 μg, r-GILZ 2 ng, n=9/group
[8] = Example 1, LNC 45 days post-immunization, PLP139-151 and/or MBP87-99, vs vehicle/control peptide
[9] = Example 1, LNC 45 days post-immunization, PLP139-151 or MBP87-99, vs vehicle/control peptide
[10] = MBP87-99 stimulation, mice treated on day 0
[11] = PLP139-151 re-stimulation, mice treated on day 0
[12] = mice treated 12 days post-immunization

Substance | clinical relapse after initial remission (R-EAE in SJL/J mice; [5]) | mean clinical score (severity of clinical disease) (R-EAE in SJL/J mice; [6]) | clinical relapse after initial remission (R-EAE in SJL/J mice; Example 2) | mean total clinical score (R-EAE in SJL/J mice; [7]) | average clinical score per day, in words (R-EAE in SJL/J mice; Example 2, vs control groups) | IFN-γ secretion [1] | IL-10 secretion [1] | IL-12 secretion [1] | IL-17 secretion [1] | cytokine secretion (INF-γ and IL-12p40) by in-vivo primed T cells [1] | proliferative response, in words [2] | p65-specific DNA binding activity in nuclear extracts [3] | IL-10 secretion [4, 8] | IFN-γ secretion [4, 9] | IL-12 secretion [4, 9] | TNF-α secretion [4, 9] | IL-10 secretion [4, 10] | TGF-β secretion [4, 10] | IFN-γ secretion [4, 11] | IL-12 secretion [4, 11] | other results
Ac-CLSPEEPAPESPQVPEAPGGSAV-NH2 [GILZ-P] | exhibited no relapse | 0.56+/−0.21 | exhibited minimal relapse | 2.25±0.72 | significantly lower | significantly lower | elevated | significantly lower | significantly lower | suppresses | significantly decreased proliferative response | significantly decreased | higher | significantly reduced | significantly reduced | significantly reduced | 1850.8 ± 90 pg/mL | 33.31 ± 4 pg/mL | 96.5 ± 7.1 pg/mL | 12.7 ± 0.47 pg/mL | mean clinical score (severity of clinical disease) (R-EAE in SJL/J mice; Example 1, GILZ peptide 500 μg i.p. on day 12 post-induction): 1.78+/−1.01; average clinical score per day, in words (R-EAE in SJL/J mice; Example 1, day 0/day 12 treatment vs control groups, listed as GILZ peptide): significantly reduced scores; average clinical score per day, in words (R-EAE in SJL/J mice; Example 1, day 0/day 12 treatment vs control groups, listed as GILZ-peptide): significantly lower; mean total clinical score (R-EAE in SJL/J mice; Example 2, Pep-1•GILZ-P single dose on day 12): 15.75±4.85; IFN-γ secretion ([1]; listed as GILZ-peptide): significantly decreased; IL-12 secretion ([1]; listed as GILZ-peptide): significantly decreased; proliferative response (mean Δcpm), maximum inhibition ([2]; 250 μM GILZ-P with Pep-1): 1404±106 cpm; proliferative response (Δcpm) ([2]; GILZ peptide in the absence of Pep-1): 6663±173 cpm; proliferative response (Δcpm) ([2]; GILZ peptide in the absence of Pep-1, listed as GILZ peptide): 6663+/−173 cpm; proliferative response (Δcpm) ([2]; peptide 500 μM in complex with Pep-1, PLP 40 μg/ml, 72 h): 1702+/−217 cpm; proliferative response, in words ([2]; listed as GILZ peptide): greater inhibition than those treated with r-GILZ at all concentrations; IFN-γ secretion [4, 10]: 97.4 ± 6.9 pg/mL; IL-12 secretion [4, 10]: 28.4 ± 1.6 pg/mL; IL-17 secretion [4, 10]: 10.43 ± 0.4 pg/mL; IL-17 secretion [4, 11]: 10.85 ± 0.3 pg/mL; IL-10 secretion ([4]; PLP139-151 stimulation, mice treated on day 0): 2316 ± 52.9 pg/mL; IL-12 secretion, in words [4, 12]: significantly lower; reduction in IFN-γ, in words [4, 12]: not significant
r-GILZ: recombinant glucocorticoid induced leucine zipper protein (Abnova; OriGene with C-terminal DDK) | exhibited no relapse | 0.17+/−0.14 | exhibited minimal relapse | 7.13±2.8 | significantly lower | significantly decreased; also recorded: significantly lower | elevated | significantly decreased; also recorded: significantly lower | significantly lower | suppresses | significantly decreased proliferative response | significantly decreased | higher | significantly reduced | significantly reduced | significantly reduced | 1667 ± 63.7 pg/mL | 31.7 ± 0.8 pg/mL | 100.5 ± 6.8 pg/mL | 22.5 ± 01.05 pg/mL | average clinical score per day, in words (R-EAE in SJL/J mice; Example 1, day 0/day 12 treatment vs control groups): significantly reduced scores; also recorded: significantly lower; proliferative response (Δcpm) ([2]; r-GILZ 200 ng with Pep-1, PLP 40 μg/ml, 72 h): 4658+/−266 cpm; IL-17 secretion [4, 11]: 10.66 ± 0.2 pg/mL
